Measurements from PMC9769694, “Discovery of Two Inhibitors of the Type IV Pilus Assembly ATPase PilB as Potential Antivirulence Compounds” (Microbiology Spectrum, 2022).

Columns and labels:
[1] = test system: A. nosocomialis; assay: Growth in liquid culture; format: cell-based, Acinetobacter nosocomialis; conditions: up to 512 μM (highest tested), data not shown
Text: (§1) These include many bacteria with alarming prevalence for causing antibiotic-resistant infection ([12]). […] This is important because, for the development of antivirulence chemotherapies, the small molecules should not have an inhibitory effect on bacterial growth. Otherwise, they would select for resistance, just like antibiotics. From a chemical structure perspective, levodopa is 3,4-dihydroxyphenylalanine (Fig. 2), or phenylalanine with two hydroxyl groups. […] These preliminary studies of structure and activity relationships are consistent with benserazide and levodopa being specific inhibitors of PilB. As mentioned earlier, work with trifluoperazine ([25]) and P4MP4 ([26], [27]) has provided the proof of principle for antivirulence therapies with anti-T4P compounds. It is also encouraging that a compound targeting the adhesin function of the type 1 pilus of the uropathogenic E. coli (UPEC) ([47]) has moved to the clinical trial phase in the drug development pipeline ([48]).

[2] = test system: M. xanthus S motility; assay: T4P-mediated social (S) motility, colony expansion on soft agar; format: cell-based, Myxococcus xanthus; conditions: soft agar, strains YZ1674 (MxPilB) and YZ2232 (MC3PilB), 5 days, P < 0.05
Text: Benserazide and levodopa were examined to determine whether they could impact the T4P assembly function of PilB in vivo using M. xanthus as the model bacterium ([28]). […] Three M. xanthus strains were used for these experiments. Strain DK10416 lacks S motility because it is a pilB deletion (ΔpilB) mutant ([40]). The other two strains both assemble T4P and are proficient in S motility ([30]). Strain YZ1674 produces the wild-type (WT) M. xanthus PilB (MxPilB). YZ2232 expresses MC3PilB, a PilB chimera with the N terminus of MxPilB fused to the C-terminal ATPase domain of CtPilB ([30]). The PilB ATPase domains of MxPilB and MC3PilB are highly similar, with 66% shared identity and 77% similarity (Fig. S1).
FIG 5 Benserazide and levodopa inhibit T4P-mediated social (S) motility in Myxococcus xanthus. Expansion rates (cm/day) of the MxPilB (YZ1674) and the MC3PilB (YZ2232) strains on soft agar plates by S motility in the presence of (A and C) benserazide and (B and D) levodopa after 5 days of incubation. Results from three independent experiments are shown, each performed in quintuplicates with data points represented by dots of the same color. Horizontal black lines represent overall averages. Expansion rates were normalized by subtracting that of the ΔpilB strain, which has no S motility (also see Fig. S4). Asterisks (*) indicate that the values at the indicated concentrations are statistically different (P < 0.05) from those of the no-inhibitor control.
(§2) M. xanthus was grown and maintained at 32°C in Casitone-yeast extract (CYE) medium ([49]). Motility assays were conducted with strains DK10416 (ΔpilB) ([40]), YZ1674 (ΔpilB att::MxpilB) ([50]), and YZ2232 (ΔpilB att::MC3pilB) ([30], [51]) as previously described ([28]). One modification was that 10% India ink was included in the cell suspension to mark the initial spot on agar plates. All experiments were conducted in quintuplicates and the diameter of the initial spot, as marked by India ink, was subtracted for data analysis.

[3] = test system: M. xanthus; assay: Growth in liquid culture; format: cell-based, Myxococcus xanthus; conditions: up to 512 μM (highest tested), data not shown
Text: as §1

[4] = test system: M. xanthus adventurous (A) motility; assay: Expansion of ΔpilB strain DK10416 (A motility only) on hard agar; format: cell-based, Myxococcus xanthus; conditions: up to 128 μM
Text: On the other hand, YZ1674 and YZ2232, which have both A and S motility, were affected in their expansion on hard agar by both compounds (Fig. S4 and S5) at concentrations similar to those on soft agar. Indeed, the results with hard agar plates mirror those with soft agar. […] Because neither benserazide nor levodopa had any effect on A motility (Fig. S3C and D), the net differences on hard agar at different concentrations of the inhibitor (Fig. S4) can be viewed as confirmation of its effect on S motility (Fig. 5). […] It is plausible that this inhibition is attributable to their effects on the PilB ATPase in vivo.
as §2

Row | SMILES | effect on growth in liquid culture [1] | concentration giving significant inhibition of S motility [2] [µM] | effect on growth in liquid culture [3] | effect on expansion of DK10416 (A motility) [4]
1 | N[C@@H](Cc1ccc(O)c(O)c1)C(=O)O [levodopa, 3,4-dihydroxyphenylalanine] | neither benserazide nor levodopa had any discernible effect on the growth | ≥ 32 | neither benserazide nor levodopa had any discernible effect on the growth | neither benserazide nor levodopa influenced the expansion of DK10416
2 | NC(CO)C(=O)NNCc1ccc(O)c(O)c1O (centres unmarked) [benserazide] | neither benserazide nor levodopa had any discernible effect on the growth | ≥ 8 | neither benserazide nor levodopa had any discernible effect on the growth | neither benserazide nor levodopa influenced the expansion of DK10416
